Reference: patent publication US20250123269A1 (priority 2023, published 2025)

What was measured:
[1] = test system: SARS-COV-2 B.1.617.2 delta; assay type: cell-based
[2] = test system: SARS-COV-2 B.1.1.529 omicron; assay type: cell-based

Row | Compound | dose-dependent inhibition of infection [1] | inhibition of infection [1] | reduction of infection [1] | dose-dependent inhibition of infection [2] | inhibition of infection [2] | reduction of infection [2]
1 | O=c1nc(NO)ccn1[C@@H]1O[C@H](CO)[C@@H](O)[C@H]1O [EIDD-1931] | dose-dependent inhibition of infection | complete inhibition | at least 50% | dose-dependent inhibition of infection | complete inhibition | at least 50%
2 | Cc1c(O)cccc1C(=O)N[C@@H](CSc1ccccc1)[C@H](O)CN1C[C@H]2CCCC[C@H]2C[C@H]1C(=O)NC(C)(C)C [nelfinavir] | dose-dependent inhibition of infection | did not completely inhibit infection | – | dose-dependent inhibition of infection | did not completely inhibit infection | –
3 | CC(C)(C)[C@H](NC(=O)C(F)(F)F)C(=O)N1C[C@H]2[C@@H]([C@H]1C(=O)N[C@H](C#N)C[C@@H]1CCNC1=O)C2(C)C [nirmatrelvir, Nirmatrelvir] | dose-dependent inhibition of infection | – | 50% | dose-dependent inhibition of infection | nearly completely inhibited | –
